Broadly, the ED50 is the midpoint of the dose-response relation. As usually defined, the inhibition is the share of the control response that was lost under treatment.

Series [1] relates to PCP-induced hyperlocomotor activity in mice. Kind of series: Reversal of Phencyclidine (PCP)-Induced Hyperlocomotor Activity in Mice. In kind it is in vivo, mouse. From the text: This assay for Reversal of Phencyclidine (PCP)-Induced Hyperlocomotor Activity in Mice is run substantially as the Reversal of Phencyclidine (PCP)-Induced Hyperlocomotor Activity in Rats assay provided above, using mice instead of rats and with the changes noted below.
Motor activity is monitored by placing individual male, ICR (CD-1), (Harlan, Indianapolis, Ind.) mice in transparent, plastic shoe-box cages of the dimensions 45×25×20 cm, with 0.5 cm depth of wood chips as bedding, and plastic lid on top of the cage. Motor monitors (Kinder Scientific) consist of a rectangular rack of 12 photobeams arranged in an 8×4 formation, (or a high density grouping of 22 in a 15×7 pattern) at a height of 2.5 cm. The shoe box cage is placed inside of these racks, with the racks on a 3 foot high tabletop in an isolated room. A compound of the present invention is dosed (intraperitoneal route, non-prodrug) usually within a range of 0.3-30 mg/kg; though higher doses may be used, 30 minutes prior to a 7.5 mg/kg challenge dose of phencyclidine (PCP). On the test day, mice are placed in the test cage and allowed to acclimate for 45 minutes prior to PCP challenge; mice are monitored for an additional 60 minutes following PCP administration.
Power analyses have determined that 7-8 mice per group are needed to have appropriate statistical power for detecting treatment differences (power=0.8).

In series [2] the test system is immobility in forced swim test in mice. In words: Forced Swim Test in Rodents (mice). The series is classed as in vivo, mouse. The conditions noted are these: for ED60 (60% of the amount of immobility relative to vehicle controls): intraperitoneal dosing 60 min prior to testing. The method, then: In this assay, mechanisms with purported antidepressant-like activity decrease immobility in a brief inescapable forced swim episode.
The forced-swim test was conducted in mice (male, NIH-Swiss mice, 20-25 g, Harlan Sprague-Dawley, Indianapolis, Ind.). Mice are placed in clear plastic cylinders (diameter 10 cm; height: 25 cm) filled to 6 cm with 22-25° C. water for six min. The duration of immobility is recorded during the last 4 min of a six-minute trial. The compounds of Examples 2, 3, 8, 11, and 12 are tested following intraperitoneal dosing, 60 min prior to testing. Imipramine is used as a positive control for these studies. Compounds are formulated in a water vehicle, with minimal NaOH added. The amount of time spent immobile (defined as movements only necessary to keep the subject's head above water) is the dependent measure and recorded by an observer blinded to the drug treatment of the subjects. Data are analyzed by post-hoc Dunnett's test with alpha level set at 0.05.

Series [3] can be described thus: In Vitro Intestinal Prodrug Hydrolysis Assay. The conditions noted are these: 1 h, 10 µM, pH 7.4. The series is classed as in vitro ADME. The method, then: Frozen human duodenum intestinal homogenates (1:2 tissue:buffer ratio using 100 mM Tris Phosphate buffer, pH 7.4) are obtained from Celsius In Vitro Technologies (Baltimore, Md.) that were both phenylmethylsulphonylfluoride (PMSF) and EDTA free.
Each lot of human duodenum is obtained from a single donor and the intestine is scraped and the sections are frozen separate. All original tissue collections are performed at 4° C. and immediately frozen at −70° C.
Hydrolysis of the positive control, Internal Prodrug Compound A to Internal Compound Drug A, run in every batch averaged 75.3% (n=20). Final values are then normalized relative to the formation of Internal Compound Drug A.

The target of series [4] is T1, PepT1 (Homo sapiens, UniProt P46059).
T1 construct: expressed in transfected cells; host or cells: HeLa cells (ATCC), transient transfection with FUGENE6
T1 sequence (P46059 1-708): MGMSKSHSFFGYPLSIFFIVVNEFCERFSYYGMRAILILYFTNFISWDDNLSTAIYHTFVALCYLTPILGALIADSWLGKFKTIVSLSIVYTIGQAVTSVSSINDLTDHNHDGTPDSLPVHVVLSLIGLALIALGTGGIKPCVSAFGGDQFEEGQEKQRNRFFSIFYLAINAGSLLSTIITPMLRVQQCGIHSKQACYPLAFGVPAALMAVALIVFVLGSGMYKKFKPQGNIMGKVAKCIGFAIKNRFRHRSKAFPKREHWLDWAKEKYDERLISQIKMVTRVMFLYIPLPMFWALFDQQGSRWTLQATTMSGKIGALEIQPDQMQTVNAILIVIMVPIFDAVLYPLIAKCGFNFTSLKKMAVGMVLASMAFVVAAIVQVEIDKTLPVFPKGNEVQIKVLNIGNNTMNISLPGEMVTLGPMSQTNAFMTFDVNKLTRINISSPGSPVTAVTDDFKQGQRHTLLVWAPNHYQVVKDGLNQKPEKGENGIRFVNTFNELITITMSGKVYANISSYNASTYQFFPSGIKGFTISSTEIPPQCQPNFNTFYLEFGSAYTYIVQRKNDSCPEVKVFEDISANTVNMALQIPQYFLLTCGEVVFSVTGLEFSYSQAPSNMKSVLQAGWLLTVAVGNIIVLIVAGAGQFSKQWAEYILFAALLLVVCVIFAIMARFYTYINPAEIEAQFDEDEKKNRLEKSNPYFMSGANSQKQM
In words: In Vitro PepT1 GlySar Inhibition Screen. The series is classed as cell-based. The conditions noted are these: prodrug at 5 mM, pH 6.0, PepT1 transiently transfected HeLa cells, 5 μM [14C]Gly-Sar and 20 μM cold Gly-Sar; read-out: Mean GlySar Uptake Inhibition %. The method, then:
PepT1 assays are established to examine the ability of the amino acid prodrug compounds to interact with the intestinal absorption transporter PepT1.
HeLa cells, derived from human cancer cells, (American Type Culture Collection) are grown in Hyclone Medium (Invitrogen, Cat# SH30243) containing 10% fetal bovine serum (FBS), 0.1 mM non essential amino acids (NEAA), and 100 units/mL penicillin with 100 μg/mL streptomycin at 37° C. in a 5% CO2 humidified atmosphere. The cell line is used for up to 40 passages and then discarded. Frozen cells in 1 mL vials are thawed in water bath for 1-2 minutes and added to 5 mL of cell medium at 37° C. Each of the T-flasks is provided with 8.5 mL of the fresh medium and 1.5 mL of the cell stock. Cells are passaged twice during a week. […] Each new flask receives a combination of 8.5 mL of fresh medium and 1.5 mL of cell stock, in order to obtain 1:6 cell dilution. Cells are incubated at 37° C., until ready for the uptake study.
Cells that are 70-80% confluent in the T-flasks are plated 1 day prior to the transfection procedure. The flask with the cell stock is treated with PBS-EDTA and trypsin to detach the cells, and transfection medium is used from this point. Transfection medium consists of Dulbecco's Modified Eagle Medium (DMEM)+NEAA. To each well, 0.5 mL of the cell mixture is added (1.3×10^5 is the desired cell concentration) and the cells are incubated at 37° C. overnight. Twenty four hours before the assay, cells are transfected with PEPT1. Transfection mixture is prepared by mixing 600 μL of serum free transfection medium, 18 μL of FUGENE6® (Roche Diagnostics), and 11 μg of the PepT1 DNA. The transfection reagent-DNA complex is incubated for 20 minutes and 24 μL of the reagent-DNA complex is added to each well.
Inhibition of PEPT1-mediated [glycyl-1-2-^14C]Glyclysarcosine (GlySar) uptake activity is measured in the cells cultured in the 24-well plates 24-hours post transfection as previously published (Zhang et al. 2004. J. Pharm. Exper Ther. 310:437-445). To measure the ability of a compound of the present invention to inhibit the uptake of [^14C]Gly-Sar, prodrug compounds are incubated with 80 to 90% confluent PepT1 transiently transfected HeLa cells at 5 mM in pH 6.0 uptake medium in the presence of 5 μM [^14C]Gly-Sar (Moravek Biochemicals) and 20 μM cold Gly-Sar. Uptake media consists of 140 mM NaCl, 5.4 mM KCl, 1.8 mM CaCl2, 0.8 mM MgSO4, 5 mM Glucose, 25 mM tris(hydroxymethyl)aminomethane buffer (TRIS). The solution is then brought to pH 6.0 using 2-(N-morpholino)ethanesulfonic acid. The incubation volume is 500 μL and is performed at room temperature for 3 minutes. To stop the uptake at the conclusion of the incubation time, the uptake media is aspirated off of the cell monolayer and 500 μL of ice cold PBS added to the well. The cells are washed 3 times with 500 μL of room temperature PBS without Ca^+2 and Mg^+2. The cells are then lysed with 300 μL of 1% TRITON® X100 H2O solution. A 200 μL aliquot is removed and radioactivity is determined by liquid scintillation counting to measure the [^14C]Gly-Sar present in each of the incubation wells. A no inhibitor control is established and the percent inhibition of each prodrug is calculated with respect to this control.

Structures can show the parent of a compound that is named as a salt.

Consider `Cl.N[C@@]1(C(=O)O)C[C@@H](Sc2nnc(C(F)F)[nH]2)[C@H]2[C@H](C(=O)O)[C@H]21` [Example 8, (1R,2S,4R,5R,6R)-2-Amino-4-(5-difluoromethyl-1H-[1,2,4]triazol-3-ylsulfanyl)-bicyclo[3.1.0]hexane-2,6-dicarboxylic acid hydrochloride], for which, in series [1] (single dose of 10 mg/kg), the “reversal of PCP-induced locomotor activity” value was determined as 52%. In addition, the “ED60 (60% of the amount of immobility relative to vehicle controls)” value in series [2] came to 7.95 mg/kg.

For the compound `N[C@@]1(C(=O)O)C[C@H](Sc2c[nH]nn2)[C@H]2[C@H](C(=O)O)[C@H]21` [Example 11, (1R,2S,4S,5R,6R)-2-Amino-4-(1H-triazol-4-ylsulfanyl)bicyclo[3.1.0] hexane-2,6-dicarboxylic acid hydrochloride], the ED50 in series [1] (Mus musculus, i.p. administration, 30 minutes prior to 7.5 mg/kg PCP) was determined as 1.2 mg/kg. Moreover, the “efficacy in forced swim test, second study” value in series [2] (i.p., higher doses (3-30 mg/kg)) is “efficacy was lost”. Also, the “ED60 (60% of the amount of immobility relative to vehicle controls)” value in series [2] stood at 0.88 mg/kg.

With `CSCC[C@H](N)C(=O)N[C@@]1(C(=O)O)C[C@@H](Sc2nnc(C(F)(F)F)[nH]2)[C@H]2[C@H](C(=O)O)[C@H]21.Cl` [Example 17, (1R,2S,4R,5R,6R)-2-((S)-2-Amino-4-methylsulfanyl-butyrylamino)-4-(5-trifluoromethyl-1H-[1,2,4]triazol-3-ylsulfanyl)-bicyclo[3.1.0]hexane-2,6-dicarboxylic acid hydrochloride], the “In Vitro Human Intestinal Hydrolysis % (relative to positive control)” value in series [3] worked out at 63.3%.

`Cl.NCC(=O)N[C@@]1(C(=O)O)C[C@@H](Sc2nnc(C(F)(F)F)[nH]2)[C@H]2[C@H](C(=O)O)[C@H]21` [Example 18, (1R,2S,4R,5R,6R)-2-(glycylamino)-4-{[5-(trifluoromethyl)-1H-1,2,4-triazol-3-yl]sulfanyl}bicyclo[3.1.0] hexane-2,6-dicarboxylic acid hydrochloride]: the “In Vitro Human Intestinal Hydrolysis % (relative to positive control)” value in series [3] amounted to 65.5%.

As for `C[C@H](N)C(=O)N[C@@]1(C(=O)O)C[C@@H](Sc2cn[nH]n2)[C@H]2[C@H](C(=O)O)[C@H]21.Cl` [Example 19, (1R,2S,4R,5R,6R)-2-[[(2S)-2-Aminopropanoyl]amino]4-(2H-1,2,3-triazol-4-ylsulfanyl)bicyclo[3.1.0] hexane-2,6-dicarboxylic acid hydrochloride], the “In Vitro Human Intestinal Hydrolysis % (relative to positive control)” value in series [3] is given as 58.1%.

Turning to `CSCC[C@H](N)C(=O)N[C@@]1(C(=O)O)C[C@@H](Sc2cn[nH]n2)[C@H]2[C@H](C(=O)O)[C@H]21.Cl` [Example 21, (1R,2S,4R,5R,6R)-2-((S)-2-Amino-4-methylsulfanyl-butyrylamino)-4-(2H-[1,2,3]triazol-4-ylsulfanyl)-bicyclo[3.1.0]hexane-2,6-dicarboxylic acid hydrochloride], the inhibition at 5000 µM in series [4] worked out at 57.4%. Also, the “In Vitro Human Intestinal Hydrolysis % (relative to positive control)” value in series [3] is 63.8%.

These data come from patent US9296710B2, “Bicyclo (3.1.0) hexane-2, 6-dicarboxylic acid derivatives as mGlu2 receptor agonist” (Eli Lilly and Company, priority 2011, dated 2016).
